How the values were obtained:
[1] = system: A549 cells; assay: in vitro antiproliferation assay, A549 (lung); type: cell-based
Procedure: (§1) The IC50 values of various compounds against a various different tumor cell lines were determined using standard in vitro antiproliferation assays. The tumor cell lines tested were as follows: A549 (lung); H1299 (lung), ACHN (kidney/p53 wt), CAKI (renal cell carcinoma), NCI-H460 (lung); HCT116 (colon/p53w0; HELA (cervix/p53 wt), HUH7 (liver/p53 wt), HUVEC (primary endothelial), LNCAP (prostate), HT-29 (colon); MCF-7 (breast); MCF-7 (breast/ER positive), MDA MB435S (breast); MDA MB231 (breast/ER negative), DU145 (prostate); BxPC-3 (pancreatic); SKOV-3 (ovarian); HepG2 (hepatic), NDHF primary normal human dermal fibroblast), SKMEL28 (breast/p53mut), SKMEL5 (breast/p53 wt), U20S (bone) and PC3 (prostate). […] A blank indicates the specified compound was not tested against the specified cell line.

[2] = system: H1299 cells; assay: in vitro antiproliferation assay, H1299 (lung); type: cell-based
Procedure: as §1

[3] = Homo sapiens, IC50 class against A549 (lung) tumor cells
[4] = Homo sapiens, NCI-H1299, IC50 class against H1299 (lung) tumor cells
[5] = IC50 class against A549 (lung) tumor cells
[6] = IC50 class against H1299 (lung) tumor cells
[7] = in vitro antiproliferation, A549 (lung) cells, Table 4, compounds with no designated stereochemistry tested as racemate
[8] = in vitro antiproliferation, H1299 (lung) cells, Table 4, compounds with no designated stereochemistry tested as racemate

SMILES	IC50 [1, 3]	IC50 [2, 4]	IC50 [1, 5]	IC50 [2, 6]	further results
COC(=O)N1CCN(c2ccc(Nc3ncc(F)c(Nc4cc(C(C)(C)C)[nH]n4)n3)cc2)CC1 [compound 203]	≤ 20 µM	≤ 20 µM	–	–	–
CN1CCN(c2ccc(Nc3ncc(F)c(Nc4cc(C(C)(C)C)[nH]n4)n3)cc2)CC1 [compound 204]	≤ 20 µM	≤ 20 µM	–	–	–
CC(=O)N1CCN(c2cccc(Nc3ncc(F)c(Nc4cc(C5CC5)[nH]n4)n3)c2)CC1 [compound 205]	≤ 20 µM	≤ 20 µM	–	–	–
CN1CCN(c2ccc(Nc3ncc(F)c(Nc4cc(C5CC5)[nH]n4)n3)cc2)CC1 [compound 206]	≤ 20 µM	≤ 20 µM	–	–	–
Fc1cnc(Nc2cccc(N3CCOCC3)c2)nc1Nc1cc(C2CC2)[nH]n1 [compound 207]	≤ 20 µM	≤ 20 µM	–	–	–
CCOC(=O)N1CCN(c2ccc(Nc3ncc(F)c(Nc4cc(C5CC5)[nH]n4)n3)cc2)CC1 [compound 209]	≤ 20 µM	≤ 20 µM	–	–	–
Fc1cnc(Nc2ccc(N3CCOCC3)cc2)nc1Nc1cc(C2CC2)[nH]n1 [compound 210]	≤ 20 µM	> 20 µM	–	–	–
CN1CCN(c2ccc(Nc3ncc(F)c(Nc4cc(C5CC5)[nH]n4)n3)cc2Cl)CC1 [compound 212]	≤ 20 µM	≤ 20 µM	–	–	–
Cc1cc(Nc2ncc(F)c(Nc3cc(C4CC4)[nH]n3)n2)ccc1N1CCN(C)CC1 [compound 213]	≤ 20 µM	≤ 20 µM	–	–	–
CN1CCN(c2ccc(Nc3ncc(F)c(Nc4cc(C5CC5)[nH]n4)n3)cc2C(F)(F)F)CC1 [compound 214]	≤ 20 µM	≤ 20 µM	–	–	–
CC(C)Nc1nc(Nc2ccc(N3CCN(C)CC3)cc2)ncc1F [compound 215]	–	–	≤ 20 µM	≤ 20 µM	–
CC(C)Nc1nc(Nc2ccc(N3CCN(C)CC3)c(Cl)c2)ncc1F [compound 216]	–	–	≤ 20 µM	≤ 20 µM	–
Cc1cc(Nc2ncc(F)c(NC(C)C)n2)ccc1N1CCN(C)CC1 [compound 217]	–	–	≤ 20 µM	≤ 20 µM	–
CC(C)Nc1nc(Nc2ccc(N3CCN(C)CC3)c(C(F)(F)F)c2)ncc1F [compound 218]	–	–	≤ 20 µM	≤ 20 µM	–
CC(C)Nc1nc(Nc2cccc(N3CCN(C)CC3)c2)ncc1F [compound 219]	–	–	≤ 20 µM	≤ 20 µM	–
CN1CCN(c2ccc(Nc3ncc(F)c(NC(C)(C)C)n3)cc2)CC1 [compound 220]	–	–	≤ 20 µM	≤ 20 µM	–
CN1CCN(c2cccc(Nc3ncc(F)c(NC(C)(C)C)n3)c2)CC1 [compound 221]	–	–	≤ 20 µM	≤ 20 µM	–
CN1CCN(c2ccc(Nc3ncc(F)c(NC(C)(C)C)n3)cc2Cl)CC1 [compound 222]	–	–	≤ 20 µM	≤ 20 µM	–
Cc1cc(Nc2ncc(F)c(NC(C)(C)C)n2)ccc1N1CCN(C)CC1 [compound 223]	–	–	≤ 20 µM	≤ 20 µM	–
CN1CCN(c2ccc(Nc3ncc(F)c(NC(C)(C)C)n3)cc2C(F)(F)F)CC1 [compound 224]	–	–	≤ 20 µM	≤ 20 µM	–
CCN1CCN(c2ccc(Nc3ncc(F)c(NC(C)C)n3)cn2)CC1 [compound 225]	–	–	≤ 20 µM	≤ 20 µM	–
CCN1CCN(c2ccc(Nc3ncc(F)c(NC(C)(C)C)n3)cn2)CC1 [compound 226]	–	–	≤ 20 µM	≤ 20 µM	–
Cc1cc(Nc2ncc(F)c(NC(C)C)n2)cnc1N1CCN(C)CC1 [compound 227]	–	–	≤ 20 µM	≤ 20 µM	–
Cc1cc(C)cc(Nc2ncc(F)c(Nc3ccc4c(c3)NC(=O)C(C)O4)n2)c1 (stereo not drawn) [compound 229]	–	–	–	–	IC50 [1, 7]: ≤ 20 µM; IC50 [2, 8]: ≤ 20 µM
O=C1COc2ccc(Nc3nc(Nc4cccc(-c5ncco5)c4)ncc3F)cc2N1 [compound 236]	–	–	–	–	IC50 [1, 7]: ≤ 20 µM; IC50 [2, 8]: ≤ 20 µM
O=C1COc2ccc(Nc3nc(Nc4cccc(-c5cnco5)c4)ncc3F)cc2N1 [compound 239]	–	–	–	–	IC50 [1, 7]: > 20 µM; IC50 [2, 8]: ≤ 20 µM
C[C@@H]1Oc2ccc(Nc3nc(Nc4cccc(-c5cnco5)c4)ncc3F)cc2NC1=O [compound 240]	–	–	–	–	IC50 [1, 7]: ≤ 20 µM; IC50 [2, 8]: > 20 µM
CN1C(=O)COc2ccc(Nc3nc(Nc4cccc(O)c4)ncc3F)cc21 [compound 255]	–	–	–	–	IC50 [1, 7]: ≤ 20 µM; IC50 [2, 8]: ≤ 20 µM
COc1cc(Nc2ncc(F)c(Nc3ccc4c(c3)NC(=O)C(C)(C)S4(=O)=O)n2)cc(OC)c1 [compound 263]	–	–	–	–	IC50 [1, 7]: > 20 µM; IC50 [2, 8]: > 20 µM
Cc1cc(C)cc(Nc2ncc(F)c(Nc3ccc4c(c3)NC(=O)C(C)(C)S4(=O)=O)n2)c1 [compound 264]	–	–	–	–	IC50 [1, 7]: > 20 µM; IC50 [2, 8]: ≤ 20 µM
